According to ChEMBL document CHEMBL4043292, “Discovery and Optimization of Phosphopantetheine Adenylyltransferase Inhibitors with Gram-Negative Antibacterial Activity” (J Med Chem, 2018):
≈ marks a conversion by molar mass, not a printed value.

Legend:
[1] = Inhibition of PPAT in tolC deficient Escherichia coli JW5503-1 assessed as reduction in level of CoA-SH metabolite by mass spectrometric method
[2] = Inhibition of PPAT in Escherichia coli BW25113 assessed as reduction in level of CoA-SH metabolite by mass spectrometric method
Escherichia coli [3] = test: Ratio of IC50 for PPAT in Escherichia coli BW25113 assessed as reduction in level of CoA-SH metabolite to IC50 for PPAT in tolC deficient Escherichia coli JW5503-1 assessed as reduction in level of CoA-SH metabolite
[4] = biological target: T1, Bifunctional coenzyme A synthase (Homo sapiens) (UniProt Q13057)
T1 sequence (whole entry): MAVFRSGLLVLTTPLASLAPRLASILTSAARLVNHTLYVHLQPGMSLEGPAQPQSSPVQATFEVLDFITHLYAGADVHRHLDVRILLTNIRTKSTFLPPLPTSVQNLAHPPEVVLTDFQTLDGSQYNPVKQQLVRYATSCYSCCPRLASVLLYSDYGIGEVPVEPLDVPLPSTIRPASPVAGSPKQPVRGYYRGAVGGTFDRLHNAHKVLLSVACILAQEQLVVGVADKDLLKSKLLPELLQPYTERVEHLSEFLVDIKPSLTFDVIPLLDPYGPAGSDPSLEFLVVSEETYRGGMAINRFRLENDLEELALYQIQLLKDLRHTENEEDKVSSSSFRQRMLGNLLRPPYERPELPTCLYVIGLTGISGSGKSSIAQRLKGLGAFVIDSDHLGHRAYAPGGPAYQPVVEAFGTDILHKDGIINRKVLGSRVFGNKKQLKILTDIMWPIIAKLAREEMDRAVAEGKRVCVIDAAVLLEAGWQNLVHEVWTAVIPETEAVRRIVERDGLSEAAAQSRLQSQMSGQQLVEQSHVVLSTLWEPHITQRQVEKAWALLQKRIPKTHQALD
Description: Inhibition of human coaSY expressed in tolC deficient Escherichia coli JWK0002 assessed as bacterial growth inhibition after 20 hrs by broth microdilution method

physchem [5] = conditions: buffer, pH 7.4
Description: Lipophilicity, log D of the compound at pH 7.4

physchem [6] = conditions: PBS
Description: Solubility of the compound in PBS

in vitro [7] = conditions: human, not told
Description: Efflux ratio in human microsomes

in vitro [8] = conditions: human, Caco-2
in vitro [9] = conditions: human, Caco-2; remark: listed apart in the source
Description: Efflux ratio of apparent permeability across basolateral to apical over apical to basolateral side in human Caco2 cells

Escherichia coli [10] = test: microbe, parasite or virus in culture; conditions: JW5503-1, 20 h
Description: Antibacterial activity against tolC deficient Escherichia coli JW5503-1 after 20 hrs by broth microdilution method

Escherichia coli [11] = test: microbe, parasite or virus in culture; conditions: BW25113, 20 h
Description: Antibacterial activity against Escherichia coli BW25113 after 20 hrs by broth microdilution method

Escherichia coli [12] = test: microbe, parasite or virus in culture; conditions: JW0451-2, 20 h
Description: Antibacterial activity against acrB deficient Escherichia coli JW0451-2 after 20 hrs by broth microdilution method

Escherichia coli [13] = test: microbe, parasite or virus in culture; conditions: RFM795, 20 h
Description: Antibacterial activity Escherichia coli RFM795 harboring frame deletion of 23 amino acids in lptD gene after 20 hrs by broth microdilution method

Pseudomonas aeruginosa [14] = test: microbe, parasite or virus in culture; conditions: PAO1, 20 h
Description: Antibacterial activity against Pseudomonas aeruginosa PAO1 after 20 hrs by broth microdilution method

Pseudomonas aeruginosa [15] = test: microbe, parasite or virus in culture; conditions: ATCC 35151, 20 h
Description: Antibacterial activity against Pseudomonas aeruginosa ATCC 35151 after 20 hrs by broth microdilution method

Pseudomonas aeruginosa [16] = test: microbe, parasite or virus in culture; conditions: K1119, 20 h
Description: Antibacterial activity against mexAB deficient Pseudomonas aeruginosa K1119 after 20 hrs by broth microdilution method

COC(=O)N1CCC(Oc2cccc([C@@H](CC#N)Nc3nc4nc(C)ccc4[nH]3)c2)CC1
IC50 [1]: 0.024 µM
IC50 [2]: 11.9 µM
Ratio IC50 (Escherichia coli [3]): 500
MIC [4]: > 128 mg/L
logD (physchem [5]): 3
solubility (physchem [6]): 0.264 mg/mL (≈ 608 µM)
efflux ratio (in vitro [7]): 0.44
Papp A→B (in vitro [8]): 10 nm/s
efflux ratio (in vitro [9]): 48
MIC (Escherichia coli [10]): 0.25 mg/L (≈ 0.575 µM)
MIC (Escherichia coli [11]): > 128 mg/L
MIC (Escherichia coli [12]): 32 mg/L (≈ 73.6 µM)
MIC (Escherichia coli [13]): 8 mg/L (≈ 18.4 µM)
MIC (Pseudomonas aeruginosa [14]): > 128 mg/L
MIC (Pseudomonas aeruginosa [15]): 128 mg/L (≈ 295 µM)
MIC (Pseudomonas aeruginosa [16]): 128 mg/L (≈ 295 µM)

COC(=O)N1CCC(Cc2cccc([C@@H](CC#N)Nc3nc4nc(C)ccc4[nH]3)c2)CC1
MIC [4]: 128 mg/L (≈ 296 µM)
logD (physchem [5]): 2.8
solubility (physchem [6]): 0.158 mg/mL (≈ 365 µM)
efflux ratio (in vitro [7]): 0.77
Papp A→B (in vitro [8]): 23 nm/s
efflux ratio (in vitro [9]): 18
MIC (Escherichia coli [10]): ≤ 0.125 mg/L
MIC (Escherichia coli [11]): 128 mg/L (≈ 296 µM)
MIC (Escherichia coli [12]): 16 mg/L (≈ 37 µM)
MIC (Escherichia coli [13]): 2 mg/L (≈ 4.62 µM)
MIC (Pseudomonas aeruginosa [14]): > 128 mg/L
MIC (Pseudomonas aeruginosa [16]): 32 mg/L (≈ 74 µM)
